The test system of one series is olfactory epithelium. The experiment in a line: Electro-olfactory (EOG) recording of olfactory epithelium response to odorant Citralva. It counts as in vivo, mice. As to conditions: 10 μl/nostril intranasal, recording 10 min later. As for the experimental part:
A detailed description of the method employed is provided, e.g., by Wong et al. (Neuron 2000: 27: 487-97), and Scott (J Neurosci 2000; 15:4721-31). Briefly, six week old mice were used and each mouse was given 10 μl/nostril of Diltiazem at 10 μM, 100 μM, or saline. It was returned to home cage and euthanized 10 min later for electro-olfactory (EOG) recording. The odorant was Ciltralva at 5 μM. Also included was a “no treatment” control.

Series [1] in a line: Food intake in food-deprived rats after intranasal administration. It counts as in vivo, rat. As for the experimental part:
Male Sprague-Dawley rats, 150-175 g at the start of the experiments (Charles River Laboratories, Wilmington, Mass.) were housed individually in suspended wire mesh cages; maintained on a reversed-lighting schedule (lights-on at 7 p.m., lights-off at 7 a.m.); and acclimated to our climate controlled animal facility and to the test diets for 7 days prior to experimentation. As the experiments in food-deprived rats were performed during the dark cycle, a dull red light (25 watt) was used to help with placement and weighing of the food jars.
Rats had ad libitum access to tap water and food (Rodent Laboratory Chow No. 5001-pellet form, Purina) on non-testing days. A mush diet, used for experiments on food-deprived animals, and composed of equal parts by weight of ground rodent chow (Purina, # 5001-meal form) and a 4% nutrient agar solution (Teklad Diets) was presented to the animals in glass jars. […]
One hour after administration, pre-weighed food jars were introduced into the cage and a sheet of clean white paper placed under each cage to catch any spillage. The amount of food consumed after 1, 2 and 4 hours was determined to the nearest 0.01 g. […]
One hour later pre-weighed food jars were introduced into the cage and a sheet of clean white paper placed under each cage to catch any spillage. The amount of food consumed after 1, 2 and 4 hours was determined to the nearest 0.01 g.

Series [2] is described as follows: Rota-Rod test after intranasal administration. It is filed as in vivo, rat. To be noted: intranasal 1 mg/kg; 6 rpm; sessions 0-60 minutes after administration. As for the experimental part:
Two groups of rats (12 rats each) were tested. Each rat went through 8 sessions on the rota-rod: 3 sessions before drug administration (pretest, time −45, −30, and −15 minutes); 1 session immediately after the drug was administered (time 0); and 4 sessions after drug administration (time 15, 30, 45, and 60 minutes).
A speed of 6 rpm was used, and diltiazem was administered, as described above, intra-nasally at 1 mg/kg.
On the technique in general: Falling from the rotarod earlier than controls is read as motor impairment.

As for `COc1ccc([C@@H]2Sc3ccccc3N(CCN(C)C)C(=O)[C@@H]2OC(C)=O)cc1` [diltiazem, Diltiazem], the “effect on olfactory nerve activity (EOG response to Citralva 5 μM)” value in the series with olfactory epithelium (10 μM) was “little effect”. Besides, the “effect on olfactory nerve response (EOG response to Citralva 5 μM)” value in the series with olfactory epithelium (100 μM) is “blocked”. In addition, the “optimal dose (concentration of solution) for reduction of food intake” value in series [1] (dosing study, intranasal 20 μL/nostril, 0.02, 0.2 and 2 mg/kg, strong trend (FIG. 2)) is reported as 0.2-20 % w/v. Besides, the “amount of food consumed” value in series [1] (intranasal 20 μL/nostril, 0.02-2 mg/kg, food given 1 hour after administration, consumed after 1, 2 and 4 hours, versus placebo (FIG. 1)) is recorded as “consumed significantly less food”. The “activity (balance and agility) in Rota-Rod test, drug versus vehicle group” value in series [2] is recorded as “no indications of a difference in activity”.

The values above are taken from US7435407B2, “Inhibition of olfactory neurosensory function to treat eating disorders and obesity” (Compellis Pharmaceuticals, priority 2002, dated 2008).
